Reference: the supplement of paper PMC10307832

Legend:
Experiment in all cases: relative viability (nuclei count vs DMSO), 5 days (fraction); higher = more cells survive
TPCA-1 + Crizotinib = compound: C1=CC(=CC=C1C2=CC(=C(S2)NC(=O)N)C(=O)N)F [TPCA-1] + C[C@@H](Oc1cc(-c2cnn(C3CCNCC3)c2)cnc1N)c1c(Cl)ccc(F)c1Cl [Crizotinib] (partner 1 µM)
In short: (§1)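 After 5 days of treatment, lung cancer cells in 1536-well plates were fixed and stained in a single step (final 0.05% Triton X-100, 1% formaldehyde, 1 ug/ml Hoechst) and their nuclei counted on 4× images. Treatment had been applied by pin tool the day after seeding as one drug alone or as a fixed anchor-drug dose with five library-drug doses (not always all listed) in √10 steps. Relative viability is the nuclei count of treated wells divided by that of vehicle wells, and values are medians of duplicate plates.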

TPCA-1 + Vorinostat = compound: C1=CC(=CC=C1C2=CC(=C(S2)NC(=O)N)C(=O)N)F [TPCA-1] + O=C(CCCCCCC(=O)Nc1ccccc1)NO [Vorinostat] (partner 1 µM)
In short: as §1

TPCA-1 + Decitabine = compound: C1=CC(=CC=C1C2=CC(=C(S2)NC(=O)N)C(=O)N)F [TPCA-1] + Nc1ncn([C@H]2C[C@H](O)[C@@H](CO)O2)c(=O)n1 [Decitabine] (partner 2 µM)
In short: as §1

[1] = compound: C[C@]12O[C@H](C[C@]1(O)CO)n1c3ccccc3c3c4c(c5c6ccccc6n2c5c31)CNC4=O [Lestaurtinib] + O=C(CCCCCCC(=O)Nc1ccccc1)NO [Vorinostat] (partner 1 µM)
In short: as §1

Cell Line | relative viability (TPCA-1 + Crizotinib; first compound 0.04 µM) | relative viability (TPCA-1 + Crizotinib; first compound 0.1265 µM) | relative viability (TPCA-1 + Crizotinib; first compound 0.4 µM) | relative viability (TPCA-1 + Crizotinib; first compound 1.265 µM) | relative viability (TPCA-1 + Crizotinib; first compound 4 µM) | relative viability (TPCA-1 + Vorinostat; first compound 0.04 µM) | relative viability (TPCA-1 + Vorinostat; first compound 0.1265 µM) | relative viability (TPCA-1 + Vorinostat; first compound 0.4 µM) | relative viability (TPCA-1 + Vorinostat; first compound 1.265 µM) | relative viability (TPCA-1 + Vorinostat; first compound 4 µM) | relative viability (TPCA-1 + Decitabine; first compound 0.04 µM) | relative viability (TPCA-1 + Decitabine; first compound 0.1265 µM) | relative viability (TPCA-1 + Decitabine; first compound 0.4 µM) | relative viability (TPCA-1 + Decitabine; first compound 1.265 µM) | relative viability (TPCA-1 + Decitabine; first compound 4 µM) | relative viability ([1]; first compound 0.01581 µM) | relative viability ([1]; first compound 0.1581 µM) | relative viability ([1]; first compound 0.5 µM) | relative viability ([1]; first compound 0.005 µM) | relative viability ([1]; first compound 0.05 µM)
Calu-6 | 0.861 | 0.789 | 0.767 | 0.669 | 0.373 |  |  |  |  |  |  |  |  |  |  |  |  |  |  | 
NCI-H1648 |  |  |  |  |  | 0.4 | 0.486 | 0.528 | 0.704 | 0.631 | 0.605 | 0.578 | 0.495 | 0.519 | 0.569 | 0.543 | 0.807 | 0.29 |  | 
NCI-H3122 | 0.281 | 0.268 | 0.278 | 0.291 | 0.223 | 1.34 | 0.814 | 0.955 | 1 | 0.897 | 0.424 | 0.404 | 0.424 | 0.496 | 0.455 | 1.11 | 1.14 | 0.442 | 1.16 | 0.858
NCI-H2347 | 0.806 | 0.557 | 0.676 | 0.553 | 0.521 | 0.8 | 0.551 | 0.803 | 0.527 | 0.516 | 0.578 | 0.551 | 0.664 | 0.641 | 0.619 | 0.643 | 0.469 | 0.503 | 0.508 | 0.555
HCC-44 | 0.798 | 0.708 | 0.76 | 0.681 | 0.644 | 1.09 | 1.07 | 0.95 | 1.1 | 0.85 | 1.1 | 0.841 | 0.908 | 0.879 | 0.887 | 1.13 | 1.23 | 0.446 | 1.06 | 1.1
HCC-78 | 0.362 | 0.341 | 0.345 | 0.338 | 0.307 | 0.445 | 0.422 | 0.42 | 0.469 | 0.28 | 0.788 | 0.698 | 0.565 | 0.711 | 0.529 | 0.407 | 0.311 | 0.243 | 0.442 | 0.386
COR-L23 | 0.686 | 0.666 | 0.715 | 0.532 | 0.323 | 0.502 | 0.424 | 0.484 | 0.292 | 0.153 | 0.498 | 0.394 | 0.466 | 0.385 | 0.403 | 0.433 | 0.212 | 0.115 | 0.618 | 0.294
NCI-H1993 | 0.868 |  | 1.02 | 0.851 | 0.849 | 0.877 | 0.74 | 0.921 | 0.694 | 0.533 | 0.604 | 0.541 | 0.541 | 0.584 | 0.508 | 0.808 | 0.455 | 0.485 | 0.823 | 0.754
NCI-H2405 | 0.908 | 0.773 | 0.797 | 0.547 | 0.905 | 1.12 | 0.983 | 1.15 | 0.975 | 0.103 | 0.823 | 0.664 | 0.748 | 0.712 | 0.717 | 1.29 | 0.938 | 0.253 | 1.03 | 0.88
NCI-H2126 | 1.08 | 0.93 | 1.07 | 0.945 | 0.951 | 0.843 | 0.695 | 0.891 | 0.559 | 0.238 | 0.582 | 0.577 | 0.632 | 0.614 | 0.514 | 0.886 | 0.599 | 0.465 | 0.805 | 0.693
NCI-H2342 |  |  |  |  |  | 0.77 | 0.699 | 0.681 | 0.683 | 0.663 | 0.71 | 0.653 | 0.766 | 0.712 | 0.883 | 0.767 | 0.915 | 0.743 | 0.776 | 0.752
NCI-H1792 | 1.01 | 0.952 | 1.02 | 0.928 | 0.584 |  |  |  |  |  | 0.674 | 0.465 | 0.551 | 0.474 | 0.307 |  |  |  |  | 
NCI-H1563 | 0.945 | 0.954 | 0.89 | 0.953 | 0.811 |  |  |  |  |  |  |  |  |  |  |  |  |  |  | 
NCI-H522 |  |  |  |  |  | 1.03 | 0.819 | 1 | 0.842 | 0.987 | 0.658 | 0.674 | 0.662 | 0.646 | 0.58 | 1.13 | 0.785 | 0.474 | 0.964 | 0.895
NCI-H1793 |  |  |  |  |  | 0.619 | 0.61 | 0.967 | 0.674 | 0.236 | 0.495 | 0.429 | 0.492 | 0.451 | 0.384 | 0.884 | 0.524 | 0.252 | 0.531 | 0.561
SW 900 |  |  |  |  |  |  |  | 0.515 | 0.422 | 0.45 |  |  | 0.407 | 0.421 | 0.391 | 0.69 | 0.632 | 0.65 | 0.376 | 0.59
CAL-12T | 0.597 | 0.588 | 0.675 | 0.717 | 0.381 | 0.763 | 0.523 | 0.762 | 0.733 | 0.568 |  |  |  |  |  | 0.881 | 0.484 | 0.241 | 0.793 | 0.622
EBC-1 | 0.206 | 0.175 | 0.201 | 0.195 | 0.222 |  |  |  |  |  |  |  |  |  |  |  |  |  |  | 
IA-LM | 0.767 | 0.762 | 0.985 | 0.667 | 0.657 | 1.02 | 0.942 | 0.999 |  | 0.699 |  |  |  |  |  | 1.05 | 1.33 | 0.625 | 1.2 | 1.02
NCI-H1703 | 0.585 | 0.57 | 0.594 | 0.396 | 0.459 |  |  |  |  |  |  |  |  |  |  |  |  |  |  | 
NCI-H2228 | 0.589 | 0.489 | 0.487 | 0.364 | 0.277 | 0.733 | 0.813 | 0.933 | 0.501 | 0.567 |  |  |  |  |  | 0.779 | 0.228 | 0.211 | 0.601 | 0.352
NCI-H1395 |  |  |  |  |  | 0.637 | 0.645 | 0.856 | 0.604 | 0.55 | 0.791 | 0.694 | 0.753 | 0.797 | 0.695 | 0.902 | 0.47 | 0.343 | 0.696 | 0.607
